Measurements reported in patent publication US4293489A, “Derivatives of A-30912A nucleus” (Eli Lilly and Company, priority 1980, dated 1981).
Like-named read-outs stand apart in the source and are kept apart here. Starred links: 1 amine or outer side, 2 acyl side, 3 side chain; linkers in the order of their positions; H or OH if unused. Positions of bridges follow the written chain, without caps; N, C: chain ends. Non-standard residues stand in square brackets, D forms with d. Residues, ends and D or L forms follow the SMILES beside them. *: point of attachment. Orn(4R-OH,5R-OH) = O=C([C@H](C[C@@H](O)[C@@H](O)N[*:3])N[*:1])[*:2]; hTyr(3S-OH,4S-OH) = N[C@H](C(=O)O)[C@H](O)[C@@H](O)c1ccc(O)cc1; Benzoyl(4-dodecyloxy) = CCCCCCCCCCCCOc1ccc(C(=O)*)cc1; Benzoyl(4-OC10H21) = CCCCCCCCCCOc1ccc(C(=O)*)cc1; Pro(3S-OH,4S-Me) = C[C@H]1CN[C@H](C(=O)O)[C@H]1O; Benzoyl(4-octyl) = CCCCCCCCc1ccc(C(=O)*)cc1; X20 = CCCCCCCCCCCCCCOc1ccc(C(=O)*)cc1; X18 = CCCCCCCCCCCCOc1ccc(CC(=O)*)cc1; X3 = CCCCCCCCCCCCCCSc1ccc(C(=O)*)cc1; X1 = CCCCCCCCCCCCSc1ccc(C(=O)*)cc1; X16 = CCCCCCCCOc1ccc(C=CC(=O)*)cc1; X11 = CCCCCCCCOc1ccc(OCC(=O)*)cc1; Hyp = O=C(O)[C@@H]1C[C@@H](O)CN1; X15 = CCCCCCCCOc1cccc(CC(=O)*)c1; X19 = CCCCCCOc1ccc(C=CC(=O)*)cc1; X6 = CCCCCCCCCCSc1ccc(C(=O)*)cc1; X12 = CCCCCCOc1ccc(CCC(=O)*)cc1; X7 = CCCCCCCCSc1ccc(C(=O)*)cc1; X14 = CCCCCCOc1ccc(C(=O)*)cc1; X17 = CCCCOc1ccc(CCC(=O)*)cc1

Experiments:
[1] = tested on: Candida albicans A-26; experiment: Therapeutic activity against Candida albicans A-26 infection in mice, ED50; assay type: in vivo; conditions: Candida albicans, A26, sc, doses 0, 4 and 24 hours post infection, increase in survival time vs control, Reed-Muench, read-out: ED50
Protocol: (§1) The results of in vivo tests to evaluate the effectiveness of the compounds of Examples 3 and 4 against an infection caused by Candida albicans A-26 in mice are given in Table 13, where activity is measured by the ED50 value (the dose in mg/kg. required to cure 50% of the test animals). In a separate test, the results of which are also summarized in Table 13, activity is indicated by the lowest dose at which a significant anti-fungal effect is observed. In this test, groups of male albino mice (specific pathogen free), weighing 18 to 20 grams, are infected intravenously with Candida albicans A-26. The animals are X-irradiated 24 hours prior to infection at about 50 roentgens per minute for 8 minutes (400 total dose) to reduce immune responses to the infecting organism. At 0, 4, and 24 hours post infection each group of mice is given graded doses subcutaneously of the test compound as a suspension in 33% polyethylene glycol (PEG)-water. The day of death for each animal is recorded.
(§2) *Dosage Schedules: A. = 40, 20, 15 and 10 mg/kg; Dosages given 0, 4, and
(§3) 24 hours post injection as suspension of test compound in 30% PEGH2
(§4) O. Number of mice receiving test compounds at each dosage level: 6 mice
(§5) per group. Number of mice in control (untreated) group: 10 mice per group
**As measured by increase in survival time of treated animals versus
control, calculated by method of Reed v Mueuch, American J. Hygiene, 27,

[2] = tested on: Candida albicans A-26; experiment: Therapeutic activity against Candida albicans A-26 infection in X-irradiated mice, lowest active dose; assay type: in vivo; conditions: A26, light or radiation study, sc
Protocol: as §1, §2, §3, §4, §5

[3] = in vivo; conditions: mouse, po, 416 mg/kg
[4] = X-irradiated mice, subcutaneous at 0, 4 and 24 hours post infection, survival, read-out: Lowest Active Dose
[5] = read-out: Lowest Active Dose, X-irradiated mice, subcutaneous at 0, 4 and 24 hours post infection, survival

Compound	ED50 [1] [mg/kg]	minimal effective dose [2, 4] [mg/kg]	minimal effective dose [2, 5] [mg/kg]	Cmax [3] [ng/mL]
CCCCCCOc1ccc(C(=O)N[C@H]2C[C@@H](O)[C@@H](O)NC(=O)[C@@H]3[C@@H](O)[C@@H](C)CN3C(=O)[C@H]([C@@H](C)O)NC(=O)[C@H]([C@H](O)[C@@H](O)c3ccc(O)cc3)NC(=O)[C@@H]3C[C@@H](O)CN3C(=O)[C@H]([C@@H](C)O)NC2=O)cc1 [drawing 167] (X14-[Orn(4R-OH,5R-OH)]T[Hyp][hTyr(3S-OH,4S-OH)]T[Pro(3S-OH,4S-Me)]; lactam 1-C)	28	20	–	–
CCCCCCCCc1ccc(C(=O)N[C@H]2C[C@@H](O)[C@@H](O)NC(=O)[C@@H]3[C@@H](O)[C@@H](C)CN3C(=O)[C@H]([C@@H](C)O)NC(=O)[C@H]([C@H](O)[C@@H](O)c3ccc(O)cc3)NC(=O)[C@@H]3C[C@@H](O)CN3C(=O)[C@H]([C@@H](C)O)NC2=O)cc1 [drawing 169] ({Benzoyl(4-octyl)}-[Orn(4R-OH,5R-OH)]T[Hyp][hTyr(3S-OH,4S-OH)]T[Pro(3S-OH,4S-Me)]; lactam 1-C)	30	40	–	–
CCCCOc1ccc(CCC(=O)N[C@H]2C[C@@H](O)[C@@H](O)NC(=O)[C@@H]3[C@@H](O)[C@@H](C)CN3C(=O)[C@H]([C@@H](C)O)NC(=O)[C@H]([C@H](O)[C@@H](O)c3ccc(O)cc3)NC(=O)[C@@H]3C[C@@H](O)CN3C(=O)[C@H]([C@@H](C)O)NC2=O)cc1 [drawing 170] (X17-[Orn(4R-OH,5R-OH)]T[Hyp][hTyr(3S-OH,4S-OH)]T[Pro(3S-OH,4S-Me)]; lactam 1-C)	> 40	40	–	–
CCCCCCOc1ccc(CCC(=O)N[C@H]2C[C@@H](O)[C@@H](O)NC(=O)[C@@H]3[C@@H](O)[C@@H](C)CN3C(=O)[C@H]([C@@H](C)O)NC(=O)[C@H]([C@H](O)[C@@H](O)c3ccc(O)cc3)NC(=O)[C@@H]3C[C@@H](O)CN3C(=O)[C@H]([C@@H](C)O)NC2=O)cc1 [drawing 171] (X12-[Orn(4R-OH,5R-OH)]T[Hyp][hTyr(3S-OH,4S-OH)]T[Pro(3S-OH,4S-Me)]; lactam 1-C)	9.2	–	5	–
CCCCCCOc1ccc(C=CC(=O)N[C@H]2C[C@@H](O)[C@@H](O)NC(=O)[C@@H]3[C@@H](O)[C@@H](C)CN3C(=O)[C@H]([C@@H](C)O)NC(=O)[C@H]([C@H](O)[C@@H](O)c3ccc(O)cc3)NC(=O)[C@@H]3C[C@@H](O)CN3C(=O)[C@H]([C@@H](C)O)NC2=O)cc1 [drawing 175] (X19-[Orn(4R-OH,5R-OH)]T[Hyp][hTyr(3S-OH,4S-OH)]T[Pro(3S-OH,4S-Me)]; lactam 1-C)	21.8	–	5	–
CCCCCCCCOc1ccc(C=CC(=O)N[C@H]2C[C@@H](O)[C@@H](O)NC(=O)[C@@H]3[C@@H](O)[C@@H](C)CN3C(=O)[C@H]([C@@H](C)O)NC(=O)[C@H]([C@H](O)[C@@H](O)c3ccc(O)cc3)NC(=O)[C@@H]3C[C@@H](O)CN3C(=O)[C@H]([C@@H](C)O)NC2=O)cc1 [drawing 176] (X16-[Orn(4R-OH,5R-OH)]T[Hyp][hTyr(3S-OH,4S-OH)]T[Pro(3S-OH,4S-Me)]; lactam 1-C)	3.75	–	5	–
CCCCCCCCOc1cccc(CC(=O)N[C@H]2C[C@@H](O)[C@@H](O)NC(=O)[C@@H]3[C@@H](O)[C@@H](C)CN3C(=O)[C@H]([C@@H](C)O)NC(=O)[C@H]([C@H](O)[C@@H](O)c3ccc(O)cc3)NC(=O)[C@@H]3C[C@@H](O)CN3C(=O)[C@H]([C@@H](C)O)NC2=O)c1 [drawing 177] (X15-[Orn(4R-OH,5R-OH)]T[Hyp][hTyr(3S-OH,4S-OH)]T[Pro(3S-OH,4S-Me)]; lactam 1-C)	> 40	–	10	–
CCCCCCCCCCCCOc1ccc(CC(=O)N[C@H]2C[C@@H](O)[C@@H](O)NC(=O)[C@@H]3[C@@H](O)[C@@H](C)CN3C(=O)[C@H]([C@@H](C)O)NC(=O)[C@H]([C@H](O)[C@@H](O)c3ccc(O)cc3)NC(=O)[C@@H]3C[C@@H](O)CN3C(=O)[C@H]([C@@H](C)O)NC2=O)cc1 [drawing 178] (X18-[Orn(4R-OH,5R-OH)]T[Hyp][hTyr(3S-OH,4S-OH)]T[Pro(3S-OH,4S-Me)]; lactam 1-C)	8.4	–	10	–
CCCCCCCCOc1ccc(OCC(=O)N[C@H]2C[C@@H](O)[C@@H](O)NC(=O)[C@@H]3[C@@H](O)[C@@H](C)CN3C(=O)[C@H]([C@@H](C)O)NC(=O)[C@H]([C@H](O)[C@@H](O)c3ccc(O)cc3)NC(=O)[C@@H]3C[C@@H](O)CN3C(=O)[C@H]([C@@H](C)O)NC2=O)cc1 [drawing 179] (X11-[Orn(4R-OH,5R-OH)]T[Hyp][hTyr(3S-OH,4S-OH)]T[Pro(3S-OH,4S-Me)]; lactam 1-C)	16.8	–	10	–
CCCCCCCCCCOc1ccc(C(=O)N[C@H]2C[C@@H](O)[C@@H](O)NC(=O)[C@@H]3[C@@H](O)[C@@H](C)CN3C(=O)[C@H]([C@@H](C)O)NC(=O)[C@H]([C@H](O)[C@@H](O)c3ccc(O)cc3)NC(=O)[C@@H]3C[C@@H](O)CN3C(=O)[C@H]([C@@H](C)O)NC2=O)cc1 [drawing 182] ({Benzoyl(4-OC10H21)}-[Orn(4R-OH,5R-OH)]T[Hyp][hTyr(3S-OH,4S-OH)]T[Pro(3S-OH,4S-Me)]; lactam 1-C)	–	–	–	< 100
CCCCCCCCCCCCOc1ccc(C(=O)N[C@H]2C[C@@H](O)[C@@H](O)NC(=O)[C@@H]3[C@@H](O)[C@@H](C)CN3C(=O)[C@H]([C@@H](C)O)NC(=O)[C@H]([C@H](O)[C@@H](O)c3ccc(O)cc3)NC(=O)[C@@H]3C[C@@H](O)CN3C(=O)[C@H]([C@@H](C)O)NC2=O)cc1 [drawing 183] ({Benzoyl(4-dodecyloxy)}-[Orn(4R-OH,5R-OH)]T[Hyp][hTyr(3S-OH,4S-OH)]T[Pro(3S-OH,4S-Me)]; lactam 1-C)	–	–	–	5000
CCCCCCCCCCCCCCOc1ccc(C(=O)N[C@H]2C[C@@H](O)[C@@H](O)NC(=O)[C@@H]3[C@@H](O)[C@@H](C)CN3C(=O)[C@H]([C@@H](C)O)NC(=O)[C@H]([C@H](O)[C@@H](O)c3ccc(O)cc3)NC(=O)[C@@H]3C[C@@H](O)CN3C(=O)[C@H]([C@@H](C)O)NC2=O)cc1 [drawing 184] (X20-[Orn(4R-OH,5R-OH)]T[Hyp][hTyr(3S-OH,4S-OH)]T[Pro(3S-OH,4S-Me)]; lactam 1-C)	–	–	–	5000
CCCCCCCCSc1ccc(C(=O)N[C@H]2C[C@@H](O)[C@@H](O)NC(=O)[C@@H]3[C@@H](O)[C@@H](C)CN3C(=O)[C@H]([C@@H](C)O)NC(=O)[C@H]([C@H](O)[C@@H](O)c3ccc(O)cc3)NC(=O)[C@@H]3C[C@@H](O)CN3C(=O)[C@H]([C@@H](C)O)NC2=O)cc1 [drawing 185] (X7-[Orn(4R-OH,5R-OH)]T[Hyp][hTyr(3S-OH,4S-OH)]T[Pro(3S-OH,4S-Me)]; lactam 1-C)	–	–	–	< 100
CCCCCCCCCCSc1ccc(C(=O)N[C@H]2C[C@@H](O)[C@@H](O)NC(=O)[C@@H]3[C@@H](O)[C@@H](C)CN3C(=O)[C@H]([C@@H](C)O)NC(=O)[C@H]([C@H](O)[C@@H](O)c3ccc(O)cc3)NC(=O)[C@@H]3C[C@@H](O)CN3C(=O)[C@H]([C@@H](C)O)NC2=O)cc1 [drawing 186] (X6-[Orn(4R-OH,5R-OH)]T[Hyp][hTyr(3S-OH,4S-OH)]T[Pro(3S-OH,4S-Me)]; lactam 1-C)	–	–	–	5000
CCCCCCCCCCCCSc1ccc(C(=O)N[C@H]2C[C@@H](O)[C@@H](O)NC(=O)[C@@H]3[C@@H](O)[C@@H](C)CN3C(=O)[C@H]([C@@H](C)O)NC(=O)[C@H]([C@H](O)[C@@H](O)c3ccc(O)cc3)NC(=O)[C@@H]3C[C@@H](O)CN3C(=O)[C@H]([C@@H](C)O)NC2=O)cc1 [drawing 187] (X1-[Orn(4R-OH,5R-OH)]T[Hyp][hTyr(3S-OH,4S-OH)]T[Pro(3S-OH,4S-Me)]; lactam 1-C)	–	–	–	30000
CCCCCCCCCCCCCCSc1ccc(C(=O)N[C@H]2C[C@@H](O)[C@@H](O)NC(=O)[C@@H]3[C@@H](O)[C@@H](C)CN3C(=O)[C@H]([C@@H](C)O)NC(=O)[C@H]([C@H](O)[C@@H](O)c3ccc(O)cc3)NC(=O)[C@@H]3C[C@@H](O)CN3C(=O)[C@H]([C@@H](C)O)NC2=O)cc1 [drawing 188] (X3-[Orn(4R-OH,5R-OH)]T[Hyp][hTyr(3S-OH,4S-OH)]T[Pro(3S-OH,4S-Me)]; lactam 1-C)	–	–	–	230000
